{"source": "patent US8546419B2", "about": "“Dual phase drug release system” (priority 2003, dated 2013)", "key": {"[1]": {"assay": "in vivo", "conditions": "mouse", "description": "The toxicity of CPT was evaluated in normal outbred mice, as well as in xenograft bearing nude athymic animals in the course of antineoplastic activity studies."}, "[2]": {"system": "HT29 cell culture", "assay": "Cytotoxicity of CPT derivatives, MTT assay", "type": "cell-based, human", "conditions": "HT-29 cell culture, 72 hours post treatment, read-out: ID50, growth inhibition", "description": "Human colorectal adenocarcinoma HT-29 cell culture was from ATCC (ATCC HTB-38).\nCytotoxicity of CPT derivatives was investigated in HT29 cell culture. Cells were grown in McCoy's 5a medium with 1.5 mM L-glutamine supplemented with 10% FBS."}, "[3]": {"system": "HT-29 xenograft", "type": "in vivo", "conditions": "HT29 model; for time of tumor growth from 0.10-0.15 cm^3 to 1.5 cm^3: 22.5 mg/kg, untreated control 24 days", "description": "Camptothecin and CPT-SI (the first phase release product) were used as controls.\nCells were injected subcutaneously into the left flank, 10^6 cells per animal in 50 μl. […] Animals of the first three groups received the respective experimental substance via the tail vein in five doses every three days (5xq3D). […] CPT and CPT-SI were administered as dispersions in Tween 80/water (9/1 v/v). Animal weight, tumor size, animal appearance, behavior, and survival rate were monitored for four weeks after administration. Weight loss over 20% and tumor growth over 1500 mm^3 were counted as lethalities (animals were euthanized).\nThe latter were administered as Cremofor® emulsions."}, "[4]": {"system": "HT-29 human colorectal carcinoma cells", "assay": "Cell growth inhibition in vitro by Taxol preparations", "type": "cell-based", "conditions": "HT-29 cells, conjugate with Taxol content of 13%, read-out: ED50, cell growth inhibitory efficacy", "description": "PHF-SAG-Taxol conjugate synthesis was carried out on a 2-gram scale, at ambient temperature, pH 5.5-6.0. […] The PHF-SAG-Taxol was purified of low molecular weight impurities by gel filtration on G25 Sefadex column equilibrated with DI water, and recovered by lyophilyzation. […] Stability of PHF-Taxol conjugates in aqueous media was monitored by HPLC."}, "[5]": {"description": "The resultant suspension was diluted to 150 ml and extracted with methylene chloride (3×150 ml). Methylene chloride layers were combined, washed with 0.01 N HCl, and dried over magnesium sulfate. Solvent was removed in vacuum."}, "[6]": {"assay": "Hydrolytic stability and CPT release in aqueous media / phosphate buffered saline (RP HPLC)", "type": "physicochemical", "description": "The second stage hydrolysis of CPT-SI was investigated analogously.\nUsing procedures analogous to the described above, CPT release from these conjugates was investigated in phosphate buffered saline as described above. The conjugates were also tested for cytotoxicity in HT29 cell culture."}}, "note": "Like-named read-outs stand apart in the source and are kept apart here.", "data": [{"compound": "CCc1c2c(nc3ccc(OC(=O)N4CCC(N5CCCCC5)CC4)cc13)-c1cc3c(c(=O)n1C2)COC(=O)[C@]3(O)CC", "note": "[Irinotecan]", "values": [{"measurement": "MTD", "setting": "[1]", "result": "9 to 10", "unit": "mg/kg"}]}, {"compound": "CC[C@@]1(O)C(=O)OCc2c1cc1n(c2=O)Cc2cc3ccccc3nc2-1", "note": "[CPT, camptothecin, reference compound]", "values": [{"measurement": "IC50", "setting": "[2]; Homo sapiens", "result": 17, "unit": "nM"}, {"measurement": "MTD", "setting": "[1]", "result": "9 to 10", "unit": "mg/kg"}, {"measurement": "time of tumor growth from 0.10-0.15 cm^3 to 1.5 cm^3", "setting": "[3]", "result": 40, "unit": "days"}]}, {"compound": "CC(=O)O[C@H]1C(=O)[C@@]2(C)[C@H]([C@H](OC(=O)c3ccccc3)[C@]3(O)C[C@H](OC(=O)[C@H](O)[C@@H](NC(=O)c4ccccc4)c4ccccc4)C(C)=C1C3(C)C)[C@]1(OC(C)=O)CO[C@@H]1C[C@@H]2O", "note": "[Taxol]", "values": [{"measurement": "EC50", "setting": "[4]", "result": 15, "unit": "nM"}]}, {"compound": "Camptothecin-20-(N-succinimidoglycinate) [CPT-SI]", "values": [{"measurement": "solubility in water", "setting": "[5]", "result": "< 1.0", "unit": "µg/mL"}, {"measurement": "half-time of subsequent (second stage) hydrolysis", "setting": "[6]; depending on the conditions", "result": "over 20 hrs"}, {"measurement": "IC50", "setting": "[2]", "result": 34, "unit": "nM"}, {"measurement": "effect on tumor dynamics", "setting": "[3]", "result": "no significant effect on tumor dynamics"}, {"measurement": "time of tumor growth from 0.10-0.15 cm^3 to 1.5 cm^3", "setting": "[3]", "result": 27, "unit": "days"}]}, {"compound": "1,1-Dimethylsuccinic Acid-Linked PHF-CPT [PHF-DMSA-CPT]", "values": [{"measurement": "solubility (in words)", "setting": "[5]", "result": "soluble in water, saline and polar organic solvents"}, {"measurement": "CPT half-release time", "setting": "[6]; PBS at pH 7.47/37° C., first phase release", "result": 0.6, "unit": "h"}]}]}
